Test results as given in publication PMC7696666, “Epithelial Transfer of the Tyrosine Kinase Inhibitors Erlotinib, Gefitinib, Afatinib, Crizotinib, Sorafenib, Sunitinib, and Dasatinib: Implications for Clinical Resistance” (Cancers, 2020).
Several values for one entry are separate records, joined by “and”; a condition that tells them apart may be missing. Identical values can stand only once. Entries after “also recorded” stand apart in the source; their conditions may differ. Like-named read-outs stand apart in the source and are kept apart here.

Tests used:
[1] = design: method as in PMID 30544701; conditions: method not given, ref [45], cited from earlier work
[2] = test system: CaCo2 cells; assay: Intracellular accumulation in CaCo2 Transwell cells at the end of the transport period; type: in vitro ADME, human; conditions: for Intracellular accumulation at the end of the transfer period (A->B): A->B incubation
Method: (§1) In order to get insight in the barrier role of the CaCo2 model system, we determined the intracellular accumulation of the TKISs at the end of the transport period, in normal monolayers of CaCo2 cells and in several other colon cancer cell lines. At the end of the transport period (both from the B->A and A->B incubations), cells were harvested and intracellular accumulation was determined.
(§2) These cells were exposed to 20 μM of a TKI and were harvested after 2 h for determination of TKI concentration with LC-MS-MS. Values are means ± SEM for the number of experiments described in Figure 3, Figure 4, and Figure 5 and from three separate experiments for the monolayer CaCo2 and WiDr cells. […] A->B, mass transport from A to B; B->A, mass transport from B to A. For AFA, CRI, and DAS, no data in WiDr cells were available. […] The bar heights were not read.
(§3) In a different set of experiments, the CaCo2 cells were cultured in 6-wells plates as monolayers until semiconfluency. Two other colon cancer cell lines, WiDr and HT29, were cultured similarly. These cells were exposed for 2 h to various TKIs at concentrations varying from 50 nM to 20 µM). […] At the end of the incubation, cells were harvested, as described earlier, and extracted for drug analysis using LC-MS-MS as described above.

[3] = test system: CaCo2 monolayer; assay: CaCo2 Transwell transport (Papp, efflux ratio); type: in vitro ADME, human; conditions: for Papp basolateral to apical: B–A
Method: (§4) The Transwell system was developed using the wild type Caco-2 cell line (passage 15–25) cultured in Dulbecco’s […] medium (DMEM) at standard conditions of 37 °C, 5% CO2, and 100% humidity as previously reported. […] To ensure a controlled growth environment the plate was covered with Breathe-Easier cell culture foil during the incubation period. The integrity of the developed monolayer was assessed by TEER before administration of compound solutions and after the final sampling stage.
(§5) The initial concentration of the drug was verified from a 20 µL sample taken immediately from the donor compartment after drug administration (t = 0).
(§6) The permeability coefficient (Papp) represents a measure for the efficiency of transport and was calculated with the following equation: Papp=ΔQ/Δt×V/C0⋅A where ∆Q/∆t = the rate of increase in drug concentration (accumulative mass transport) in the receiver compartment over time (µM/s), V = volume in the receiver compartment (mL), C0 = the initial concentration of drug in the donor compartment (µM), and A = the membrane surface area (cm^2).
(§7) To take into account the slightly nonlinear transfer characteristics of each compound, the rate of increase in drug concentration was determined for each time period and the Papp was then calculated. The average Papp was then determined with units of cm/s × 10^−6 or µm/s.
(§8) The efflux ratio was calculated according to the equation: Efflux ratio=PappB→A/PappA→B.
(§9) Statistical significance was determined using a simple Student’s t-test where a p value of <0.05 was considered significant.

[4] = CaCo2 Transwell transport (Papp, efflux ratio); type: in vitro ADME, human; conditions: human; for efflux ratio at 180 min, 10 µM / efflux ratio at 180 min, 20 µM: read-out: Efflux Ratio (Papp B–A / Papp A–B); for Papp B→A at 180 min, 10 µM / Papp B→A at 180 min, 20 µM: read-out: Papp (Basolateral Apical); for Papp A→B at 180 min, 10 µM / Papp A→B at 180 min, 20 µM: read-out: Papp (Apical Basolateral); for efflux ratio at 180 min, 20 µM: Caco-2, 20 µM
Method: as §4, §5, §6, §7, §8, §9

[5] = Disposition in blood compartments (whole blood, plasma, serum) of patients; type: in vivo, human; conditions: for blood plasma ratio: human, whole blood and plasma, oral
Method: Each individual sample was divided into two components; a 1 mL of tube of whole blood and 0.5 of plasma, each sample was stored at −20 °C until analysis could be performed. An additional serum sample was also obtained for patients treated with erlotinib. Blood samples for afatinib were obtained from NSCLC patients after 4 days receiving the standard daily dose of 40 mg.
Blood samples were taken at 1, 2, and 30 days after the start of treatment. Samples were separated from the whole blood into plasma, serum, and a packed red blood cell pellet (using the MESED apparatus). In a dose escalation study in order to determine whether a high pulsatile dose of sorafenib could be given to patients, we analyzed red blood cells and whole blood in 12 patients treated with sorafenib at total doses ranging from 2000 to 2800 mg daily. From these patients, samples were collected in 3 cycles.
For sunitinib, initially pharmacokinetic samples were collected over the first 24 h period from a single patient, with a renal cell carcinoma receiving a nonstandard treatment schedule (700 mg biweekly), in comparison to the standard 50 mg daily dose. Whole blood samples were divided into plasma, serum, and a packed red blood cell pellet. This cohort could later be extended with 6 patients treated with 800 mg sunitinib every 2 weeks enrolled in a clinical study to determine the tolerability of pulsatile sunitinib.
Five blood samples were taken over a 5-month period and divided into whole blood, an extracted 100 µL of red blood cells, and a plasma sample.

[6] = test system: CaCo2 monolayer; conditions: cited from earlier work; for Papp (Apical Basolateral) / Papp (Basolateral Apical) / Efflux Ratio (Papp B–A / Papp A–B): 20 µM, previously reported, ref [39]; for Papp (Apical Basolateral): A–B; for Papp (Basolateral Apical): B–A
[7] = test system: HT29 cells; assay: Intracellular accumulation in HT29 colon cancer cells; type: in vitro ADME; conditions: after 24 h
Method: as §1
In a different set of experiments, the CaCo2 cells were cultured in 6-wells plates as monolayers until semiconfluency. Two other colon cancer cell lines, WiDr and HT29, were cultured similarly. […]

[8] = test system: WiDr cells; assay: Intracellular accumulation in WiDr colon cancer cells (monolayer); type: in vitro ADME; conditions: 20 μM, 2 h
Method: as §2, §3

[9] = test system: CaCo2 cells; assay: Intracellular accumulation in CaCo2 cells grown as normal monolayers; type: in vitro ADME, human; conditions: 20 μM, 2 h
Method: as §2, §3

[10] = Caco-2, with erlotinib (co-incubated, concentration not stated), 10 µM, with erlotinib
[11] = clinical samples, read-out: Blood to plasma ratio
[12] = Caco-2, with sorafenib (co-incubated, concentration not stated), 10 µM, with sorafenib

Row | SMILES | Intracellular accumulation at the end of the transfer period (A->B) [2] | Total amount transferred apical to basolateral in 3 h ([3]; 10 µM, A–B) | efflux ratio at 180 min, 10 µM ([4]; Caco-2, 10 µM) | Papp B→A at 180 min, 10 µM ([4]; Caco-2, 10 µM) | Efflux Ratio (Papp B–A / Papp A–B) ([3]; 10 µM) | Papp apical to basolateral ([3]; 10 µM, A–B) | Papp basolateral to apical ([3]; 10 µM) | Papp A→B at 180 min, 10 µM ([4]; Caco-2, 10 µM) | Intracellular accumulation in HT29 cells [7] | Total amount transferred apical to basolateral in 3 h ([3]; 20 µM, A–B) | efflux ratio at 180 min, 20 µM [4] | Papp A→B at 180 min, 20 µM ([4]; Caco-2) | Papp B→A at 180 min, 20 µM ([4]; Caco-2) | blood plasma ratio [5, 11] | Log P [1] | Log D (pH 5.5) [1] | Log D (pH 7.5) [1] | Papp (Apical Basolateral) [6] | Papp (Basolateral Apical) [6] | Efflux Ratio (Papp B–A / Papp A–B) [6] | other results
1 | C[C@@H](Oc1cc(-c2cnn(C3CCNCC3)c2)cnc1N)c1c(Cl)ccc(F)c1Cl [Crizotinib, crizotinib] | 2.11 pmol/μg protein | nothing could be detected | > 5 | 7.7 ± 5.5 ×10⁻⁶ cm/s |  |  |  |  |  |  |  |  |  |  | 4.73 | 0.30 | 1.80 |  |  |  | Papp (Apical Basolateral) ([3]; 10 µM, A–B): Unmeasurable; Effect of exposure on CaCo2 cells and membrane ([3]; 20 µM exposure): caused cell death and disruption of the membrane; A–B mass transport at 20 µM, fold lower than B–A mass transport at 10 µM ([3]; A–B 20 µM vs B–A 10 µM): 20 fold; Whole blood concentration higher than plasma ([5]; standard dose (250 mg twice daily), single patient): 30%
2 | C#Cc1cccc(Nc2ncnc3cc(OCCOC)c(OCCOC)cc23)c1 [Erlotinib, erlotinib] | not detectable; also recorded: no erlotinib was detectable |  | 1.6 | 0.79 ± 0.65 ×10⁻⁶ cm/s |  | 0.48 µm/s |  | 0.48 ± 0.26 ×10⁻⁶ cm/s | 0.035 pmol/μg protein |  |  |  |  | > 30 | 2.39 | 2.74 | 3.04 | 0.13 ± 0.001 ×10^−6 cm/s | 0.70 ± 0.30 ×10^−6 cm/s | 5.4 | Intracellular accumulation in WiDr cells [8]: no erlotinib; Intracellular accumulation at the end of the transfer period (B->A) ([2]; B->A incubation): no erlotinib was detectable; efflux ratio at 180 min, 10 µM [4, 12]: 1.4; Papp A→B at 180 min, 10 µM [4, 12]: 0.35 ± 0.17 ×10⁻⁶ cm/s; Papp B→A at 180 min, 10 µM [4, 12]: 0.48 ± 0.3 ×10⁻⁶ cm/s; Intracellular accumulation in CaCo2 monolayer [9]: just detectable; Efflux Ratio (Papp B–A / Papp A–B) ([6]; listed as erlotinib): > 5; Fold higher in whole blood compared to plasma ([5]; standard dosing regimen, clinical samples): 100 fold
3 | CN(C)C/C=C/C(=O)Nc1cc2c(Nc3ccc(F)c(Cl)c3)ncnc2cc1O[C@H]1CCOC1 [Afatinib, afatinib] | 0.45 pmol/μg protein | 90 pmol | > 5 | 10.9 ± 5 ×10⁻⁶ cm/s | 7.3 | 1.48 ×10⁻⁶ cm/s | 10.9 ×10⁻⁶ cm/s | 1.5 ± 2.2 ×10⁻⁶ cm/s |  |  |  |  |  |  | 3.59 | 1.00 | 2.87 |  |  |  | Papp apical to basolateral ([3]; 10 µM, A–B, listed as afatinib): 1.5 ×10⁻⁶ cm/s; Efflux Ratio (Papp B–A / Papp A–B) ([3]; 10 µM, listed as afatinib): 7.34 and > 6

Now from value to molecule, other results behind:

Row | Intracellular accumulation at the end of the transfer period (A->B) [2] | Total amount transferred apical to basolateral in 3 h ([3]; 10 µM, A–B) | efflux ratio at 180 min, 10 µM ([4]; Caco-2, 10 µM) | Papp B→A at 180 min, 10 µM ([4]; Caco-2, 10 µM) | Efflux Ratio (Papp B–A / Papp A–B) ([3]; 10 µM) | Papp apical to basolateral ([3]; 10 µM, A–B) | Papp basolateral to apical ([3]; 10 µM) | Papp A→B at 180 min, 10 µM ([4]; Caco-2, 10 µM) | Intracellular accumulation in HT29 cells [7] | Total amount transferred apical to basolateral in 3 h ([3]; 20 µM, A–B) | efflux ratio at 180 min, 20 µM [4] | Papp A→B at 180 min, 20 µM ([4]; Caco-2) | Papp B→A at 180 min, 20 µM ([4]; Caco-2) | blood plasma ratio [5, 11] | SMILES | Log P [1] | Log D (pH 5.5) [1] | Log D (pH 7.5) [1] | Papp (Apical Basolateral) [6] | Papp (Basolateral Apical) [6] | Efflux Ratio (Papp B–A / Papp A–B) [6] | other results
4 | 0.79 pmol/μg protein |  | 0.33 | 0.19 ± 0.12 ×10⁻⁶ cm/s | 0.3 | 0.57 ×10⁻⁶ cm/s | 0.19 µm/s | 0.57 ± 0.43 ×10⁻⁶ cm/s |  |  |  |  |  |  | COc1cc2ncnc(Nc3ccc(F)c(Cl)c3)c2cc1OCCCN1CCOCC1 [Gefitinib, gefitinib] | 4.11 | 1.96 | 3.55 | 0.38 ± 0.05 ×10^−6 cm/s | 0.39 ± 0.038 ×10^−6 cm/s | 1.0 | Efflux ratio after treatment with NaN3 ([6]; after NaN3, ref [38],[39]): 0.46
5 | 1.65 pmol/μg protein |  | 0.92 | 9.3 ± 5.8 ×10⁻⁶ cm/s |  |  |  | 10.1 ± 9.5 ×10⁻⁶ cm/s | 6 pmol/μg protein | approximately 950 pmol | 0.86 | 14.1 ± 11.5 ×10⁻⁶ cm/s | 11.4 ± 5.6 ×10⁻⁶ cm/s | > 3 | CNC(=O)c1cc(Oc2ccc(NC(=O)Nc3ccc(Cl)c(C(F)(F)F)c3)cc2)ccn1 [Sorafenib, sorafenib] | 5.16 | 4.26 | 4.26 |  |  |  | Efflux Ratio (Papp B–A / Papp A–B) ([3]; 20 µM): 0.81; Efflux Ratio (Papp B–A / Papp A–B) ([3]; 20 µM, listed as sorafenib): 0.8; efflux ratio at 180 min, 10 µM [4, 10]: 0.71; Papp A→B at 180 min, 10 µM [4, 10]: 18.6 ± 13.2 ×10⁻⁶ cm/s; Papp B→A at 180 min, 10 µM [4, 10]: 13.3 ± 10.5 ×10⁻⁶ cm/s; blood plasma ratio ([5]; 2000–2800 mg cumulative daily dose, 12 patients, mean ± SD, read-out: Whole blood/plasma ratio): 1.2 ± 0.4; Fold increase of concentration in whole blood compared to plasma ([5]; low dose (400 mg twice daily), several patients): 2–4 fold
6 | 11.9 pmol/μg protein |  |  |  |  |  |  |  | 32.2 pmol/μg protein | 581.2 pmol | 1.6 | 7.7 ± 4.6 ×10⁻⁶ cm/s | 12.6 ± 12.3 ×10⁻⁶ cm/s |  | CCN(CC)CCNC(=O)c1c(C)[nH]c(/C=C2\C(=O)Nc3ccc(F)cc32)c1C [Sunitinib, sunitinib] | 3.15 | −0.09 | 1.09 |  |  |  | blood plasma ratio ([5]; 50 mg, standard treatment at 50 mg, read-out: Whole blood/plasma ratio): 0.7; blood plasma ratio ([5]; single dose 14-fold higher than standard, 7 patients, mean ± SD, read-out: Whole blood/plasma ratio): 2.6 ± 0.7; Whole blood concentration lower than plasma ([5]; standard dosing regimen): 40–50%
